Assay results reported in patent US10100052B2, “Compounds for the treatment of hepatitis B virus infection” (Gilead Sciences, Inc., priority 2016, dated 2018).

Experiments:
[1] = test system: HBsAg; experiment: PHH assay for inhibition of HBsAg; format: cell-based, genotype D (AD38-derived) HBV in primary human hepatocytes; conditions: Hepatitis B virus, 288 h, read-out: HBsAg EC50
Protocol: Primary human hepatocytes (PHH) (Bioreclamation IVT) were plated on collagen-coated flasks using Plating Media (Life Technologies) containing William's Medium E supplemented with 1% penicillin/streptomycin, 4 μg/mL human recombinant insulin, 2 mM GlutaMAX, 15 mM HEPES, 1 μM dexamethasone, 5% fetal bovine serum, and 0.2% Torpedo Antibiotic Mix (Bioreclamation IVT). After a 4-hour incubation at 37° C., cells were switched to Maintenance Media (Life Technologies) containing William's Medium E supplemented with 0.5% penicillin/streptomycin, 6.25 µg/mL human recombinant insulin, 6.25 μg/mL human transferrin, 6.25 ng/mL selenous acid, 1.25 mg/mL bovine serum albumin, 5.35 μg/mL linoleic acid, 2 mM GlutaMAX, 15 mM HEPES, 0.1 μM dexamethasone, 2% fetal bovine serum, 2% DMSO, and 0.2% Torpedo Antibiotic Mix (Bioreclamation IVT). On the next day, PHH were infected with 500 genome equivalent per cell of genotype D (AD38-derived) HBV in Maintenance Media supplemented with 4% PEG 8000 (Promega). After 24 hour incubation, cells were washed three times with William's Medium E and fed with fresh Maintenance Media. At 3 days after infection, infected PHH cells were seeded on 96-well plates pre-coated with collagen at a density of 65000 cells per well containing serially diluted solutions of certain compounds disclosed herein or DMSO (1% final concentration) in a final volume of 125 μl of Maintenance Media (Life Technologies) containing William's Medium E supplemented with 0.5% penicillin/streptomycin, 6.25 μg/mL human recombinant insulin, 6.25 μg/mL human transferrin, 6.25 ng/mL selenous acid, 1.25 mg/mL bovine serum albumin, 5.35 μg/mL linoleic acid, 2 mM GlutaMAX, 15 mM HEPES, 0.1 μM dexamethasone, 5% fetal bovine serum, 1 mM 1-amininobenzotriaole, and 0.2% Torpedo Antibiotic Mix (Bioreclamation IVT). Media with compounds was replenished every 2-3 days. After an incubation time of 12 days, secreted HBsAg in the supernatant were measured using a multiplex chemiluminescent (Mesoscale discovery, MSD) assay using capture and detection antibody pairs specific for HBsAg. Comparative Example 1 and Comparative Example 2 have the following structures and were prepared according to International Publication No. WO 2015/113990.

[2] = MT-4 cytotoxicity assay; format: cell-based; conditions: human, five days incubation, Cell Titer Glo
Protocol: The MT-4 cell line (HTLV-1 transformed, human T lymphoblastoid cells) was obtained from the NIH AIDS Reagent program (Bethesda, Md.). MT-4 cells were maintained in RPMI-1640 supplemented with 10% fetal bovine serum (FBS, Hyclone, Logan, Utah). All cell culture media were also supplemented with 100 Units/mL penicillin, 100 μg/mL streptomycin (Gibco). For the MT-4 cytotoxicity assay, 0.4 μL of serially diluted solutions of certain compounds disclosed herein were added to 40 μL of cell maintenance media in 384-well black, solid bottom plate using a Biomek FX workstation (Beckman Coulter). Two thousand cells in 35 μL were added to each well using a Biotek uFlow Workstation (Biotek). Each assay plate contained 10 μM puromycin (final concentration) and 0.5% DMSO in RPMI-1640 as positive and negative controls, respectively. Assay plates were incubated for five days at 37° C. in an incubator set at 5% CO2 and 90% humidity. After five days, 22 μL of Cell Titer Glo reagent (Promega) was added to the assay plates with a Biotek uFlow Workstation. Plates were subsequently placed on a Perkin Elmer Envision Plate Reader for five minutes before the luminescence signal was read. CC50 values were calculated by non-linear regression using Pipeline Pilot software by applying a four parameter fit equation (Accelrys, San Diego, Calif.) and are reported in the following Table 2.

## COCCCOc1cc2c(cc1Cl)-c1cc(=O)c(C(=O)O)cn1N(C13CC(C1)C3)C2 [Example 5, 6-(bicyclo[1.1.1]pentan-1-yl)-10-chloro-9-(3-methoxypropoxy)-2-oxo-6,7-dihydro-2H-pyrido[2,1-a]phthalazine-3-carboxylic acid]
[1]
  EC50: 4 nM
[2]; MT-4 cells
  CC50 at 5 days: > 10000 nM

## COCCCOc1cc2c(cc1OC)-c1cc(=O)c(C(=O)O)cn1N(C(C)(C)C)C2 [Example 10, 6-(tert-butyl)-10-methoxy-9-(3-methoxypropoxy)-2-oxo-6,7-dihydro-2H-pyrido[2,1-a]phthalazine-3-carboxylic acid]
[1]
  EC50: 1.6 nM
[2]; MT-4 cells
  CC50 at 5 days: > 10000 nM

## COCCCOc1cc2c(cc1Cl)-c1cc(=O)c(C(=O)O)cn1N(C(C)(C)C(F)(F)F)C2 [Example 9, 10-chloro-9-(3-methoxypropoxy)-2-oxo-6-(1,1,1-trifluoro-2-methylpropan-2-yl)-6,7-dihydro-2H-pyrido[2,1-a]phthalazine-3-carboxylic acid]
[2]; MT-4 cells
  CC50 at 5 days: > 10000 nM

## COCCCOc1cc2c(cc1Cl)-c1cc(=O)c(C(=O)O)cn1N(C1(C)CC1)C2 [Example 6, 10-chloro-9-(3-methoxypropoxy)-6-(1-methylcyclopropyl)-2-oxo-6,7-dihydro-2H-pyrido[2,1-a]phthalazine-3-carboxylic acid]
[2]; MT-4 cells
  CC50 at 5 days: > 10000 nM

## [2H]C([2H])([2H])OCCCOc1cc2c(cc1Cl)-c1cc(=O)c(C(=O)O)cn1N(C(C)(C)C)C2 [Example 12, 6-(tert-butyl)-10-chloro-9-(3-(methoxy-d3)propoxy)-2-oxo-6,7-dihydro-2H-pyrido[2,1-a]phthalazine-3-carboxylic acid]
[1]
  EC50: 7.7 nM
[2]; MT-4 cells
  CC50 at 5 days: 9300 nM

## COCCCOc1cc2c(cc1OC)-c1cc(=O)c(C(=O)O)cn1N(C1(C(F)(F)F)CC1)C2 [Example 14, 10-methoxy-9-(3-methoxypropoxy)-2-oxo-6-(1-(trifluoromethyl)cyclopropyl)-6,7-dihydro-2H-pyrido[2,1-a]phthalazine-3-carboxylic acid]
[1]
  EC50: 8.7 nM
[2]; MT-4 cells
  CC50 at 5 days: > 10000 nM

## COCCCOc1cc2c(cc1Cl)-c1cc(=O)c(C(=O)O)cn1N(CC(C)(C)C)C2 [Example 18, 10-chloro-9-(3-methoxypropoxy)-6-neopentyl-2-oxo-6,7-dihydro-2H-pyrido[2,1-a]phthalazine-3-carboxylic acid]
[1]
  EC50: 168 nM
[2]; MT-4 cells
  CC50 at 5 days: > 10000 nM

## COCCCOc1cc2c(cc1OC)-c1cc(=O)c(C(=O)O)cn1N(C(C)(C)C(F)(F)F)C2 [Example 15, 10-methoxy-9-(3-methoxypropoxy)-2-oxo-6-(1,1,1-trifluoro-2-methylpropan-2-yl)-6,7-dihydro-2H-pyrido[2,1-a]phthalazine-3-carboxylic acid]
[1]
  EC50: 25.3 nM
[2]; MT-4 cells
  CC50 at 5 days: > 10000 nM

## COCCCOc1cc2c(cc1Cl)-c1cc(=O)c(C(=O)O)cn1N(C1(C)CC(F)(F)C1)C2 [Example 19, 10-chloro-6-(3,3-difluoro-1-methylcyclobutyl)-9-(3-methoxypropoxy)-2-oxo-6,7-dihydro-2H-pyrido[2,1-a]phthalazine-3-carboxylic acid]
[1]
  EC50: 99.2 nM
[2]; MT-4 cells
  CC50 at 5 days: > 10000 nM

## COCCCOc1cc2c(cc1Cl)-c1cc(=O)c(C(=O)O)cn1N(C1(C(F)(F)F)CC1)C2 [Example 3, 10-chloro-9-(3-methoxypropoxy)-2-oxo-6-(1-(trifluoromethyl)cyclopropyl)-6,7-dihydro-2H-pyrido[2,1-a]phthalazine-3-carboxylic acid]
[1]
  EC50: 3.1 nM
[2]; MT-4 cells
  CC50 at 5 days: > 10000 nM

## COCCCOc1cc2c(cc1Cl)-c1cc(=O)c(C(=O)O)cn1N(C1(C(F)(F)F)CCC1)C2 [Example 4, 10-chloro-9-(3-methoxypropoxy)-2-oxo-6-(1-(trifluoromethyl)cyclobutyl)-6,7-dihydro-2H-pyrido[2,1-a]phthalazine-3-carboxylic acid]
[1]
  EC50: 11.2 nM
[2]; MT-4 cells
  CC50 at 5 days: 8100 nM

## CC(C)(C)N1Cc2cc(OCCOCC(F)(F)F)c(Cl)cc2-c2cc(=O)c(C(=O)O)cn21 [Example 13, 6-(tert-butyl)-10-chloro-2-oxo-9-(2-(2,2,2-trifluoroethoxy)ethoxy)-6,7-dihydro-2H-pyrido[2,1-a]phthalazine-3-carboxylic acid]
[1]
  EC50: 58.8 nM
[2]; MT-4 cells
  CC50 at 5 days: 5200 nM

## COCCCOc1cc2c(cc1Cl)-c1cc(=O)c(C(=O)O)cn1N(C1(C)CCC1)C2 [Example 7, 10-chloro-9-(3-methoxypropoxy)-6-(1-methylcyclobutyl)-2-oxo-6,7-dihydro-2H-pyrido[2,1-a]phthalazine-3-carboxylic acid]
[1]
  EC50: 6.8 nM
[2]; MT-4 cells
  CC50 at 5 days: > 10000 nM

## COCCCOc1cc2c(cc1Cl)-c1cc(=O)c(C(=O)O)cn1N(C)C2 [Example 1, 10-chloro-9-(3-methoxypropoxy)-6-methyl-2-oxo-6,7-dihydro-2H-pyrido[2,1-a]phthalazine-3-carboxylic acid]
[1]
  EC50: 363 nM
[2]
  CC50 at 5 days: 8900 nM

## COCCCOc1cc2c(cc1Cl)-c1cc(=O)c(C(=O)O)cn1N(C(C)(C)CO)C2 [Example 16, 10-chloro-6-(1-hydroxy-2-methylpropan-2-yl)-9-(3-methoxypropoxy)-2-oxo-6,7-dihydro-2H-pyrido[2,1-a]phthalazine-3-carboxylic acid]
[1]
  EC50: 66.9 nM
[2]; MT-4 cells
  CC50 at 5 days: > 10000 nM

## COCCCOc1cc2c(cc1OC)-c1cc(=O)c(C(=O)O)cn1N(C(C)(C)COC)C2 [Example 11, 10-methoxy-6-(1-methoxy-2-methylpropan-2-yl)-9-(3-methoxypropoxy)-2-oxo-6,7-dihydro-2H-pyrido[2,1-a]phthalazine-3-carboxylic acid]
[2]; MT-4 cells
  CC50 at 5 days: > 10000 nM

## COCCCOc1cc2c(cc1Cl)-c1cc(=O)c(C(=O)O)cn1N(C(C)(C)COC)C2 [Example 8, 10-chloro-6-(1-methoxy-2-methylpropan-2-yl)-9-(3-methoxypropoxy)-2-oxo-6,7-dihydro-2H-pyrido[2,1-a]phthalazine-3-carboxylic acid]
[1]
  EC50: 11 nM
[2]; MT-4 cells
  CC50 at 5 days: > 10000 nM

## CCC(C)(C)N1Cc2cc(OCCCOC)c(Cl)cc2-c2cc(=O)c(C(=O)O)cn21 [Example 17, 10-chloro-9-(3-methoxypropoxy)-2-oxo-6-(tert-pentyl)-6,7-dihydro-2H-pyrido[2,1-a]phthalazine-3-carboxylic acid]
[1]
  EC50: 29.5 nM
[2]; MT-4 cells
  CC50 at 5 days: > 10000 nM
